Data: US7732429B2 (Trustees of Tufts College, priority 1994, dated 2010)

Key:
[1] = tested on: E. coli Class B Tc^r (DI-209); format: cell-based; conditions: drug alone; for MLC: kills 99.9%
[2] = tested on: E. faecalis Tc^s (ATCC9790r); experiment: susceptibility testing MIC/MLC, drug alone; format: cell-based
[3] = tested on: E. coli Class A Tc^r (DI-299); format: cell-based; conditions: drug alone; for MLC: kills 99.9%
[4] = tested on: E. coli Tc^s (MI 308-226); experiment: susceptibility testing MIC/MLC, drug alone; format: cell-based; conditions: Tc^s (MI 308-226), drug alone; for MLC: kills 99.9%
[5] = tested on: E. faecalis Tc^r (L) ATCC9790r/Tell.); experiment: susceptibility testing MIC/MLC, drug alone; format: cell-based; conditions: Tc^r (L) ATCC9790r/Tell.), drug alone
efflux protein = biological target: T1, efflux protein (Escherichia coli, UniProt P02980); experiment: everted membrane vesicle assay, blocking activity of 13-S-derivatives; format: biochemical; conditions: blocking activity against the efflux protein, everted membrane vesicle assay
T1 sequence (P02980 1-401): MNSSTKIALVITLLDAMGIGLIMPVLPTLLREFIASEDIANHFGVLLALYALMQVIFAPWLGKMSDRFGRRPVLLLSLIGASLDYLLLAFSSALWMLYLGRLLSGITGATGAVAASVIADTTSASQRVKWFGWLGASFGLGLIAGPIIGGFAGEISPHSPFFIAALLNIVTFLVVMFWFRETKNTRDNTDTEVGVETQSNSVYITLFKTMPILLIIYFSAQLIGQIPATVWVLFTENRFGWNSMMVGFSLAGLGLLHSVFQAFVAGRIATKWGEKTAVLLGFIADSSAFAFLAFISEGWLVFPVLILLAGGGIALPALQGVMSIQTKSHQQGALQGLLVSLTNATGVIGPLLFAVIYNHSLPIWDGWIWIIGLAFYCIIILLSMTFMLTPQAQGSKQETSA

[6] = tested on: E. faecalis Tc^r(M) (ATCC09790r/TelM); format: cell-based; conditions: drug alone

Structure (SMILES): CC(C)SCC1c2cccc(O)c2C(=O)C2=C(O)C3(O)C(=O)C(C(N)=O)=C(O)C(N(C)C)C3C(O)C21 (stereo not shown) [Isopropyl]
- MIC [1]: 35 ± 6 µg
- MLC [1]: 46 ± 16 µg
- MIC [2]: 3 ± 1 µg
- MIC [3]: 45 ± 6 µg
- MLC [3]: 60 µg
- MIC [4]: 22 ± 2 µg
- MLC [4]: 50 µg
- MIC [5]: 3 ± 1 µg
- Ki (efflux protein): 0.771 µM

Structure (SMILES): CN(C)c1ccc(O)c2c1C[C@H]1C[C@H]3[C@H](N(C)C)C(=O)C(C(N)=O)=C(O)[C@@]3(O)C(=O)C1=C2O [Minocycline, reference compound]
- MIC [1]: 6 ± 2 µg
- MLC [1]: 30 ± 10 µg
- MIC [2]: <0.25 µg
- MIC [3]: <4 µg
- MLC [3]: 20 µg
- MIC [4]: <4 µg
- MLC [4]: <4 µg
- MIC [5]: <0.25 µg
- MIC [6]: 10 µg

Structure (SMILES): CN(C)C1C(O)=C(C(N)=O)C(=O)C2(O)C(O)=C3C(=O)c4c(O)cccc4C(C)(O)C3CC12 (stereo not shown) [Tetracycline, 4-(Dimethylamino)-1,4,4a,5,5a,6-11,12a-octahydro-3,6,10,12,12a-pentahydroxy-6-methyl-1-11-dioxo-2-naphthacenecarboxamide, reference compound]
- MIC [1]: >200 µg
- MLC [1]: >200 µg
- MIC [2]: 0.25 µg
- MIC [3]: 150 ± 0.25 µg
- MLC [3]: 200 µg
- MIC [4]: 0.6 ± 0.26 µg
- MLC [4]: 40 ± 0.26 µg
- MIC [5]: 90 ± 10 µg
- MIC [6]: 100 µg
- Ki (efflux protein): 9 to 18 µM

Structure (SMILES): CN(C)C1C(O)=C(C(N)=O)C(=O)C2(O)C(O)=C3C(=O)c4c(O)cccc4C(CSCc4ccc(Cl)cc4)C3C(O)C12 (stereo not shown) [p-Cl-Benzyl]
- Ki (efflux protein): 1.5 µg/mL

Structure (SMILES): Cc1ccc(CSCC2c3cccc(O)c3C(=O)C3=C(O)C4(O)C(=O)C(C(N)=O)=C(O)C(N(C)C)C4C(O)C32)cc1 (stereo not shown) [p-Me-Benzyl]
- Ki (efflux protein): 1.2 µg/mL

Structure (SMILES): CN(C)C1C(O)=C(C(N)=O)C(=O)C2(O)C(O)=C3C(=O)c4c(O)cccc4C(CSC(C)(C)C)C3C(O)C12 (stereo not shown) [t-Butyl]
- Ki (efflux protein): 0.3 µg/mL
